Measurements: DBAASP
Values after ≈ are worked out from the molar mass of the structure shown. One block for each compound: values may come before it.

Experiments:
Test in all cases: ≥ marks a high value that may be exact or a test limit, other limits are often not marked, values filed in µg/mL are converted to µM
[1] = tested on: Escherichia coli PCM 2057
[2] = tested on: Micrococcus luteus ATCC 4698
[3] = tested on: Candida albicans TIMM 1768
[4] = tested on: Saccharomyces cerevisiae KCTC 7296
[5] = tested on: Trichosporon beigelii KCTC 7707
Enterococcus faecalis = tested on: Enterococcus faecalis
Escherichia coli W3110 = tested on: Escherichia coli W3110
[6] = tested on: Pseudomonas aeruginosa PAK
Staphylococcus aureus = tested on: Staphylococcus aureus
[7] = tested on: Streptococcus gordonii Challis DL1
[8] = tested on: Streptococcus mitis ATCC 903
[9] = tested on: Streptococcus mutans UA159
[10] = tested on: Streptococcus sanguinis NY101
[11] = tested on: Streptococcus sobrinus ATCC 33478
[12] = tested on: Bacillus subtilis KCTC 3068
[13] = tested on: Candida albicans KCTC 7965
[14] = tested on: Candida tropicalis KCTC 1925
Enterococcus sp. = tested on: Enterococcus sp.
[15] = tested on: Escherichia coli K-12 594
[16] = tested on: Micrococcus luteus KCTC 3063
[17] = tested on: Staphylococcus aureus KCTC 1928
[18] = tested on: Streptococcus gordonii DL1
[19] = tested on: Streptococcus mutans comD
[20] = tested on: Lactococcus lactis subsp. cremoris I116
Candida albicans = tested on: Candida albicans
[21] = tested on: Enterobacter cloacae 218R
[22] = tested on: Enterococcus faecalis ATCC 29212
[23] = tested on: Enterococcus faecalis W61950
[24] = tested on: Enterococcus faecium mic80
[25] = tested on: Enterococcus faecium t62764
[26] = tested on: Escherichia coli ESBL 63103
[27] = tested on: Escherichia coli ESBL 64771
Escherichia coli UB1005 = tested on: Escherichia coli UB1005
[28] = tested on: Klebsiella pneumoniae ESBL 61962
[29] = tested on: Klebsiella pneumoniae ESBL 63575
[30] = tested on: Pseudomonas aeruginosa 198
Pseudomonas aeruginosa 9 = tested on: Pseudomonas aeruginosa 9
[31] = tested on: Pseudomonas aeruginosa H1027
[32] = tested on: Pseudomonas aeruginosa H1030
[33] = tested on: Pseudomonas aeruginosa H103
[34] = tested on: Pseudomonas aeruginosa PAO1 H103
[35] = tested on: Salmonella enterica serovar Typhimurium
[36] = tested on: Staphylococcus aureus ATCC 25923
[37] = tested on: Staphylococcus aureus C623
[38] = tested on: Staphylococcus epidermidis
[39] = tested on: Stenotrophomonas maltophilia ATCC 13637

SMILES: CC[C@H](C)[C@H](NC(=O)[C@@H](NC(=O)[C@@H](N)CO)C(C)C)C(=O)NCC(=O)N[C@H]1CSSC[C@@H](C(=O)N[C@@H](Cc2ccccc2)C(=O)N[C@H](C(=O)N[C@@H](CCCCN)C(N)=O)C(C)C)NC(=O)[C@@H]2CCCN2C(=O)[C@H](CCCN=C(N)N)NC(=O)[C@@H]2CCCN2C(=O)[C@@H]2CCCN2C(=O)[C@H]([C@@H](C)CC)NC(=O)[C@H](CO)NC(=O)[C@H](CCCCN)NC(=O)[C@H]([C@@H](C)O)NC(=O)[C@H](Cc2c[nH]c3ccccc23)NC1=O [SVIGCWTKSIPPRPCFVK]
MIC [1]: ≥ 495 µM
MIC [2]: ≥ 74.3 µM

SMILES: CC[C@H](C)[C@H](NC(=O)[C@@H](NC(=O)[C@@H](N)CCCNC(=N)N)[C@@H](C)CC)C(=O)N[C@@H](CC(=O)O)C(=O)N[C@@H](CC(C)C)C(=O)N[C@@H](CC(C)C)C(=O)N[C@@H](Cc1c[nH]c2ccccc12)C(=O)N[C@@H](CCCNC(=N)N)C(=O)N[C@H](C(=O)N[C@@H](CCCNC(=N)N)C(=O)N[C@@H](CCCNC(=N)N)C(=O)N1CCC[C@H]1C(=O)N[C@@H](Cc1c[nH]c2ccccc12)C(=O)N[C@@H](CCCCN)C(=O)N1CCC[C@H]1C(=O)N[C@@H](CCCCN)C(=O)N[C@@H](Cc1ccccc1)C(=O)N[C@H](C(=O)N[C@H](C(=O)N[C@H](C(=O)N[C@@H](Cc1c[nH]c2ccccc12)C(=O)N[C@H](C(=O)N[C@H](C=O)CCCNC(=N)N)C(C)C)C(C)C)[C@@H](C)O)C(C)C)C(C)C [RIIDLLWRVRRPWKPKFVTVWVR]
MIC [3]: 14.1 µM (≈ 42.5 µg/mL)
MIC [4]: 10 µM (≈ 30 µg/mL)
MIC [5]: 10 µM (≈ 30 µg/mL)

SMILES: CC[C@H](C)[C@H](NC(=O)[C@H](CCCCN)NC(=O)[C@H](CCCCN)NC(=O)[C@H](CC(C)C)NC(=O)[C@H](C)NC(=O)[C@H](CCCN=C(N)N)NC(=O)[C@H](CCCCN)NC(=O)CNC(=O)[C@H](CC(C)C)NC(=O)[C@H](CCCN=C(N)N)NC(=O)[C@H](CC(C)C)NC(=O)[C@H](C)NC(=O)[C@H](CC(C)C)NC(=O)CNC(=O)[C@H](CC(N)=O)NC(=O)[C@H](CC(C)C)NC(=O)[C@H](CC(C)C)NC(=O)CN)C(=O)N[C@H](C(=O)N[C@@H](CCCCN)C(=O)N[C@@H](CCCN=C(N)N)C(=O)N[C@@H](CC(C)C)C(=O)N[C@@H](CS)C(=O)N[C@@H](CCCN=C(N)N)C(=O)O)[C@@H](C)CC [GLLNGLALRLGKRALKKIIKRLCR]
MIC [12]: 1.15 µM (≈ 3.12 µg/mL)
MIC [13]: 18.5 µM (≈ 50 µg/mL)
MIC [14]: 1.15 µM (≈ 3.12 µg/mL)
MIC (Enterococcus sp.): 9.24 µM (≈ 25 µg/mL)
MIC [15]: 1.15 µM (≈ 3.12 µg/mL)
MIC [16]: 0.577 µM (≈ 1.56 µg/mL)
MIC [17]: 9.24 µM (≈ 25 µg/mL)
MIC (Staphylococcus aureus): 9.24 µM (≈ 25 µg/mL)

SMILES: CC[C@H](C)[C@H](NC(=O)[C@H](CC(C)C)NC(=O)CNC(=O)CNC(=O)[C@@H](NC(=O)[C@H](CCCCN)NC(=O)CNC(=O)[C@H](CC(C)C)NC(=O)[C@@H](NC(=O)[C@H](CC(=O)O)NC(=O)[C@@H](NC(=O)[C@H](CC(C)C)NC(=O)CN)C(C)C)C(C)C)C(C)C)C(=O)N[C@@H](CCCCN)C(=O)N[C@@H](CCCCN)C(=O)N[C@@H](CC(C)C)C(=O)N[C@@H](CC(C)C)C(=O)N1CCC[C@H]1C(N)=O [GLVDVLGKVGGLIKKLLP]
MIC [20]: ≥ 32 µM

Second part, the compound after the results:

MIC (Enterococcus faecalis): ≥ 91.8 µM
MIC (Escherichia coli W3110): ≥ 91.8 µM
MIC [6]: ≥ 91.8 µM
MIC (Staphylococcus aureus): > 91.8 µM
MIC [7]: ≥ 91.8 µM
MIC [8]: ≥ 91.8 µM
MIC [9]: ≥ 91.8 µM
MIC [10]: ≥ 91.8 µM
MIC [11]: ≥ 91.8 µM
SMILES: C[C@@H](O)[C@H](NC(=O)[C@H](CO)NC(=O)[C@H](Cc1c[nH]c2ccccc12)NC(=O)[C@H](Cc1c[nH]c2ccccc12)NC(=O)[C@H](CO)NC(=O)[C@H](Cc1cnc[nH]1)NC(=O)[C@H](Cc1c[nH]c2ccccc12)NC(=O)[C@@H](N)Cc1c[nH]c2ccccc12)C(=O)N[C@@H](Cc1c[nH]c2ccccc12)C(N)=O [WWHSWWSTW]

MIC [18]: 20 µM (≈ 33.5 µg/mL)
MIC [9]: 7 µM (≈ 11.7 µg/mL)
MIC [19]: 6.5 µM (≈ 10.9 µg/mL)
MIC [10]: ≥ 40 µM
SMILES: NCCCC[C@H](NC(=O)[C@H](Cc1c[nH]c2ccccc12)NC(=O)[C@H](Cc1ccccc1)NC(=O)[C@H](CCCCN)NC(=O)[C@H](CCCCN)NC(=O)[C@@H](N)Cc1ccccc1)C(=O)N[C@@H](Cc1c[nH]c2ccccc12)C(=O)N[C@@H](Cc1ccccc1)C(=O)N[C@@H](CCCN=C(N)N)C(=O)N[C@@H](CCCN=C(N)N)C(=O)N[C@@H](Cc1ccccc1)C(=O)O [FKKFWKWFRRF]

MIC (Candida albicans): 10.6 µM (≈ 15.3 µg/mL)
MIC [21]: ≥ 45 µM
MIC [22]: 11.8 µM (≈ 17 µg/mL)
MIC [23]: ≥ 45 µM
MIC [24]: 2.84 µM (≈ 4.1 µg/mL)
MIC [25]: 0.692 µM (≈ 1 µg/mL)
MIC [26]: 5.75 µM (≈ 8.3 µg/mL)
MIC [27]: 2.84 µM (≈ 4.1 µg/mL)
MIC (Escherichia coli UB1005): 5.3 µM (≈ 7.66 µg/mL)
MIC [28]: ≥ 90 µM
MIC [29]: 22.1 µM (≈ 32 µg/mL)
MIC [30]: 11.8 µM (≈ 17 µg/mL)
MIC (Pseudomonas aeruginosa 9): 22.1 µM (≈ 32 µg/mL)
MIC [31]: 2.84 µM (≈ 4.1 µg/mL)
MIC [32]: 5.75 µM (≈ 8.3 µg/mL)
MIC [33]: ≥ 42.3 µM
MIC [34]: 2.84 µM (≈ 4.1 µg/mL)
MIC [35]: 10.6 µM (≈ 15.3 µg/mL)
MIC [36]: 2.84 µM (≈ 4.1 µg/mL)
MIC [37]: 2.84 µM (≈ 4.1 µg/mL)
MIC [38]: 1.3 µM (≈ 1.88 µg/mL)
MIC [39]: 1.45 µM (≈ 2.1 µg/mL)
SMILES: CC[C@H](C)[C@H](NC(=O)[C@@H](N)CCCCN)C(=O)N[C@@H](Cc1c[nH]c2ccccc12)C(=O)N[C@@H](Cc1c[nH]c2ccccc12)C(=O)N[C@@H](Cc1c[nH]c2ccccc12)C(=O)N[C@@H](Cc1c[nH]c2ccccc12)C(=O)N[C@@H](CCCN=C(N)N)C(=O)N[C@@H](CCCCN)C(=O)N[C@@H](CCCN=C(N)N)C(=O)O [KIWWWWRKR]
